Tests used:
[1] = tested on: superficial venous anatomy of the ears; experiment: Photodynamic treatment of superficial venous anatomy of rabbit ears (IV LS11, then 664 nm LED light); type: in vivo, New Zealand White Rabbits
Procedure: The superficial venous anatomy of the ears of New Zealand White Rabbits were treated by injecting light-reactive agent LS11 (Talaporfin Sodium) in doses selected to approximate a human dose, and thereafter exposing the superficial venous anatomy to light at a wavelength of 664 nm in dose periods ranging from 8 to 12 minutes.
A total of twelve rabbits were treated. Each rabbit (weighing approximately six pounds) was intravaneously sedated for approximately 25 minutes using Ketamine and secured to a treatment table before being treated. The ears were shaved clean of hair and skin prepped with alcohol.
LS11 (Talaporfin Sodium, from Light Sciences Oncology, Inc.) was selected as the light reactive agent 14. […] Different doses of LS11 (at a concentration of 0.125 mg per cc) were administered to different rabbits, at 0.25 mg/kg; 0.50 mg/kg; 1.0 mg/kg; and 1.5 mg/kg, respectively. The doses were selected to approximate a human dose of 3 mg/ml to 10 mg/ml (a dose of 0.2 to 0.5 mg/kg).
The doses were administered to each rabbit's ear intravenously in a slow bolus method over a period of 5 minutes. After a pre-selected delay of ten minutes following the injection, a light-applying carrier 60 of the type shown in FIG. 18A (with a linear array of three LED's) was laid on the head of the rabbit over the treated ear, which was held tight against the carrier (see FIG. 20). […]

[2] = tested on: cancer (solid tumors); conditions: with array of light emitting diodes; preclinical and human clinical trials in United States, Europe and Japan; cited from earlier work

For `C=Cc1c(C)c2cc3nc(c(CC(=O)N[C@@H](CC(=O)O)C(=O)O)c4[nH]c(cc5nc(cc1[nH]2)C(C)=C5CC)c(C)c4C(=O)O)[C@@H](CCC(=O)O)[C@@H]3C` [LS11, mono-L-aspartyl chlorine e6], the “Visible alterations in the superficial venous anatomy (shrinkage of veins) in treated ear” value ([1]; IV 0.25, 0.50, 1.0 or 1.5 mg/kg, 664 nm light for 8 to 12 minutes, other ear as control) is given as “Visible alterations in the superficial venous anatomy due to shrinkage of veins in the treated regions were observed”, the “Alteration of superficial venous anatomy, treated ear vs control ear (FIG. 21)” value ([1]; LS11 dose 1.5 mg/kg IV, light dose 8 min of 664 nm light) is given as “visibly alter the superficial venous anatomy, due to shrinkage of veins in the targeted region” and the “Efficacy in treating cancer (solid tumors)” value [2] is given as “has shown efficacy in treating cancer (solid tumors)”.

Reference: patent US8470010B2, “Systems and methods for treating superficial venous malformations like spider veins” (Green Medical, Inc., priority 2006, dated 2013)
